Measured values published in PMC8691750, “Euphorbia Factor L2 ameliorates the Progression of K/BxN Serum-Induced Arthritis by Blocking TLR7 Mediated IRAK4/IKKβ/IRF5 and NF-kB Signaling Pathways” (Frontiers in Pharmacology, 2021).
“And” between values parts separate entries of the source, which are not always exact repeats. Identical values can stand only once.

System: TLR signalling pathway genes
Experiment: Toll-like Receptor Pathway PCR array of ankles
Format: in vivo, C57BL/6 mice
Conditions: for S40/SIA (fold change) / log2(fold change) S40/SIA: S40 group vs SIA group
Procedure: Total RNA was isolated from the right ankles using the TRIzol Reagent (Invitrogen) and purified with RNeasy Mini Kit and RNase-Free DNase Set (Qiagen). RNA quality was determined using a spectrophotometer and was reversely transcribed using Wcgene® mRNA cDNA kit. The complementary DNA was used on the Toll-like Receptor Pathway PCR Array plate (Wcgene® biotech, China).

[1] = ankles of STA mice, single-animal samples S401-S405
[2] = ankles of STA mice, single-animal samples S401-S405, relative to GAPDH
[3] = ankles, STA mice + EFL2 i.p., individual mice EFL2-1 to EFL2-4
[4] = ankles, EFL2 40 mg/kg i.p. treated STA mice versus STA mice

SMILES: C=C1C(OC(=O)c2ccccc2)CC2C(C=C(C)C(=O)C3(OC(C)=O)CC(C)C(OC(=O)c4ccccc4)C3C1OC(C)=O)C2(C)C (centres unmarked) [EFL2, Euphorbia factor L2]
- S40/SIA (fold change) (Tlr8 mRNA): 0.1573
- log2(fold change) S40/SIA (Tlr8 mRNA): -2.668
- S40/SIA (fold change) (Tlr9 mRNA): 0.05745
- log2(fold change) S40/SIA (Tlr9 mRNA): -4.122
- S40/SIA (fold change) (Tnf mRNA): 0.271
- log2(fold change) S40/SIA (Tnf mRNA): -1.884
- S40/SIA (fold change) (Tnfaip3 mRNA): 0.2367
- log2(fold change) S40/SIA (Tnfaip3 mRNA): -2.079
- S40/SIA (fold change) (Tollip mRNA): 0.6335
- log2(fold change) S40/SIA (Tollip mRNA): -0.6586
- S40/SIA (fold change) (Traf6 mRNA): 0.511
- log2(fold change) S40/SIA (Traf6 mRNA): -0.9687
- S40/SIA (fold change) (Ube2v1 mRNA): 0.4284
- log2(fold change) S40/SIA (Ube2v1 mRNA): -1.223
- Rel Cт [1]: 30.17 and 31.86 and 31.19
- Rela Cт [1]: 27.60 and 28.97 and 29.92
- Ripk2 Cт [1]: 31.20 and 31.97 and 31.38
- Tbk1 Cт [1]: 35.01 and 33.84 and 30.91
- Tbp Cт [1]: 32.79 and 35.04 and 35.08 and 35.26
- Ticam1 Cт [1]: 30.63 and 31.57 and 31.92 and 31.40
- Ticam2 Cт [1]: 31.98 and 32.33 and 32.54 and 32.28
- Tirap Cт [1]: 31.54 and 33.23 and 32.87
- Tlr1 Cт [1]: 31.47 and 31.48 and 31.36 and 33.05
- Tlr2 Cт [1]: 29.79 and 30.45 and 30.70
- Tlr3 Cт [1]: 31.62 and 33.01 and 32.92 and 28.89
- Tlr4 Cт [1]: 29.41 and 30.97 and 30.43 and 30.84
- Tlr5 Cт [1]: 33.11 and 33.16 and 33.55 and 34.74
- Tlr6 Cт [1]: 32.61 and 34.42 and 28.05
- Tlr7 Cт [1]: 33.17 and 34.60 and 34.75
- Tlr8 Cт [1]: 31.72 and 32.87
- Tlr9 Cт [1]: 33.32 and 37.49
- Tnf Cт [1]: 33.75 and 35.02 and 34.91
- Tnfaip3 Cт [1]: 31.00 and 33.42 and 32.49 and 32.20
- Tnfrsf1a Cт [1]: 27.55 and 28.63 and 28.76
- Tollip Cт [1]: 29.42 and 30.42 and 30.55
- Tradd Cт [1]: 31.88 and 32.32 and 32.17 and 32.45
- Traf6 Cт [1]: 30.31 and 30.69 and 31.10 and 30.54
- Ube2n Cт [1]: 27.18 and 28.39 and 28.43 and 28.55
- Ube2v1 Cт [1]: 26.90 and 29.51 and 28.01 and 27.92
- Rel fold-GAPDH [2]: 0.005407 and 0.004928 and 0.005486
- Ripk2 fold-GAPDH [2]: 0.002639 and 0.004565 and 0.002897
- Tlr2 fold-GAPDH [2]: 0.007046 and 0.01307 and 0.007729
- Tlr8 fold-GAPDH [2]: 0.001839 and 0.001034
- Tnf fold-GAPDH [2]: 0.0004529 and 0.0005528 and 0.0004186
- Tnfaip3 fold-GAPDH [2]: 0.003028 and 0.001676 and 0.002239 and 0.001643
- Tollip fold-GAPDH [2]: 0.009094 and 0.01333 and 0.008592
- Becn1 relative expression to GAPDH [3]: 0.001891 and 0.007192 and 0.004096
- Btk relative expression to GAPDH [3]: 0.001831 and 0.004678 and 0.001063 and 0.002403
- Casp8 relative expression to GAPDH [3]: 0.01358 and 0.009475 and 0.01634
- Ccl2 relative expression to GAPDH [3]: 0.00629 and 0.0002036 and 0.01529
- Ccl11 relative expression to GAPDH [3]: 0.008836 and 0.01327 and 0.005579 and 0.01036
- Cd86 relative expression to GAPDH [3]: 0.0005777 and 0.0007714 and 0.0003428 and 0.0007215
- Chuk relative expression to GAPDH [3]: 0.01087 and 0.008829 and 0.008767
- Clec4e relative expression to GAPDH [3]: 0.002249 and 0.0004993 and 4.1493e-5 and 0.0002637
- Cxcl10 relative expression to GAPDH [3]: 2.1064e-5
- Elk1 relative expression to GAPDH [3]: 0.005652 and 0.006734 and 0.002589 and 0.006009
- Fadd relative expression to GAPDH [3]: 0.0009207 and 0.00158 and 0.0009332 and 0.001977
- Hras1 relative expression to GAPDH [3]: 0.02746 and 0.02268 and 0.01475 and 0.02419
- Hspd1 relative expression to GAPDH [3]: 0.02518 and 0.003019 and 0.01313 and 0.02796
- IRF5 relative expression to GAPDH [3]: 0.004692 and 0.004033 and 0.001353 and 0.004631
- Il1b relative expression to GAPDH [3]: 0.0009616 and 0.0008 and 0.0006699 and 0.005996
- Il6 relative expression to GAPDH [3]: 0.0008677 and 0.0003997 and 0.0006556 and 0.002971
- Il10 relative expression to GAPDH [3]: 0.0002257 and 7.048e-5 and 9.932e-5 and 0.0001425
- Ilr1 relative expression to GAPDH [3]: 0.01561 and 0.01023 and 0.00774 and 0.01383
- Irak2 relative expression to GAPDH [3]: 0.004831 and 0.004355 and 0.002516 and 0.003024
- Irak3 relative expression to GAPDH [3]: 0.02176 and 0.01462 and 0.00868 and 0.01639
- Irf1 relative expression to GAPDH [3]: 0.008232 and 0.006938
- Irf3 relative expression to GAPDH [3]: 0.01143 and 0.004857 and 0.01116
- Jun relative expression to GAPDH [3]: 0.0443 and 0.03642 and 0.03036 and 0.04078
- Ly96 relative expression to GAPDH [3]: 0.008818 and 0.008037 and 0.003545 and 0.00648
- Map2k4 relative expression to GAPDH [3]: 0.009032 and 0.01171 and 0.005161 and 0.006054
- Myd88 relative expression to GAPDH [3]: 0.0089 and 0.006533 and 0.004478 and 0.009066
- Nfkb2 relative expression to GAPDH [3]: 0.008129 and 0.004372 and 0.004079 and 0.005983
- Nfkbia relative expression to GAPDH [3]: 0.03111 and 0.02056 and 0.01675 and 0.03064
- Nfkbib relative expression to GAPDH [3]: 0.005737 and 0.004539 and 0.002397 and 0.00388
- Nr2c2 relative expression to GAPDH [3]: 0.009954 and 0.006912 and 0.004742 and 0.008167
- Peli1 relative expression to GAPDH [3]: 0.02035 and 0.01296 and 0.0006428 and 0.01623
- Pglyrp1 relative expression to GAPDH [3]: 0.0004159 and 0.002383 and 0.001422
- Ptgs2 relative expression to GAPDH [3]: 0.000397 and 0.0002674 and 0.0003018 and 0.001434
- Rel relative expression to GAPDH [3]: 0.004928 and 0.005486 and 0.005407
- Ticam1 relative expression to GAPDH [3]: 0.006005 and 0.003329 and 0.002855 and 0.003921
- Tlr2 relative expression to GAPDH [3]: 0.01307 and 0.007729 and 0.007046
- Tlr3 relative expression to GAPDH [3]: 0.002217 and 0.00166 and 0.01628 and 0.001979
- Tlr4 relative expression to GAPDH [3]: 0.00914 and 0.009306 and 0.004225 and 0.009146
- Tlr5 relative expression to GAPDH [3]: 0.001998 and 0.001071 and 0.0002832 and 0.0007049
- Tlr7 relative expression to GAPDH [3]: 0.0007393 and 0.00028 and 0.0006762
- Tlr8 relative expression to GAPDH [3]: 0.001034 and 0.001839
- Tlr9 relative expression to GAPDH [3]: 9.931e-5 and 0.0006069
- Tnf relative expression to GAPDH [3]: 0.0005528 and 0.0004186 and 0.0004529
- Tnfaip3 relative expression to GAPDH [3]: 0.001676 and 0.002239 and 0.001643 and 0.003028
- Tollip relative expression to GAPDH [3]: 0.01333 and 0.008592 and 0.009094
- Traf6 relative expression to GAPDH [3]: 0.01108 and 0.005865 and 0.005186 and 0.004909
- Ube2v1 relative expression to GAPDH [3]: 0.02505 and 0.04987 and 0.0319 and 0.05212
- Becn1 fold change S40/SIA [4]: 0.2727
- Btk fold change S40/SIA [4]: 0.3155
- Casp8 fold change S40/SIA [4]: 0.2393
- Ccl2 fold change S40/SIA [4]: 0.0326
- Ccl11 fold change S40/SIA [4]: 1.864
- Cd86 fold change S40/SIA [4]: 0.1925
- Chuk fold change S40/SIA [4]: 0.3313
- Clec4e fold change S40/SIA [4]: 0.0859
- Cxcl10 fold change S40/SIA [4]: 0.002337
- Elk1 fold change S40/SIA [4]: 0.3565
- Fadd fold change S40/SIA [4]: 0.1995
- Hras1 fold change S40/SIA [4]: 0.4915
- Hspd1 fold change S40/SIA [4]: 0.2339
- IRF5 fold change S40/SIA [4]: 0.3677
- Il1b fold change S40/SIA [4]: 0.0229
- Il6 fold change S40/SIA [4]: 0.03478
- Il10 fold change S40/SIA [4]: 0.2443
- Ilr1 fold change S40/SIA [4]: 0.09556
- Irak2 fold change S40/SIA [4]: 0.4814
- Irak3 fold change S40/SIA [4]: 0.4891
- Irf1 fold change S40/SIA [4]: 0.3319
- Irf3 fold change S40/SIA [4]: 0.3241
- Jun fold change S40/SIA [4]: 0.3678
- Ly96 fold change S40/SIA [4]: 0.3878
- Map2k4 fold change S40/SIA [4]: 0.8651
- Myd88 fold change S40/SIA [4]: 0.1447
- Nfkb2 fold change S40/SIA [4]: 0.2395
- Nfkbia fold change S40/SIA [4]: 0.2445
- Nfkbib fold change S40/SIA [4]: 0.4073
- Nr2c2 fold change S40/SIA [4]: 0.5521
- Peli1 fold change S40/SIA [4]: 0.462
- Pglyrp1 fold change S40/SIA [4]: 0.2161
- Ptgs2 fold change S40/SIA [4]: 0.03786
- Rel fold change S40/SIA [4]: 0.2762
- Ticam1 fold change S40/SIA [4]: 0.59
- Tlr2 fold change S40/SIA [4]: 0.1682
- Tlr3 fold change S40/SIA [4]: 0.7859
- Tlr4 fold change S40/SIA [4]: 0.5705
- Tlr5 fold change S40/SIA [4]: 0.188
- Tlr7 fold change S40/SIA [4]: 0.09461
- Tlr8 fold change S40/SIA [4]: 0.1573
- Tlr9 fold change S40/SIA [4]: 0.05745
- Tnf fold change S40/SIA [4]: 0.271
- Tnfaip3 fold change S40/SIA [4]: 0.2367
- Tollip fold change S40/SIA [4]: 0.6335
- Traf6 fold change S40/SIA [4]: 0.511
- Ube2v1 fold change S40/SIA [4]: 0.4284
